ChEMBL document CHEMBL1201862, “PubChem BioAssay data set” (2004)
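These data come from cells grown in 96-well plates and exposed to compound for 48 hours at five concentrations. GI50 is the concentration that inhibits growth by half.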 The source made the active and inactive calls. Rule as the data show it: active = GI50 up to about 1.1 µM and inactive = higher.

Tests used:
Assay in all cases: growth of human tumour cells (NCI), 48 h
[1] = test system: SK-MEL-5
[2] = test system: T47D
[3] = test system: COLO 205
[4] = test system: NCI-H226
[5] = test system: NCI-H522
[6] = test system: CAKI-1
[7] = test system: HOP-92
[8] = test system: KM12
[9] = test system: SK-OV-3
[10] = test system: RPMI-8226
[11] = test system: MOLT-4
[12] = test system: TK-10
[13] = test system: HCC 2998
[14] = test system: DU-145
[15] = test system: HL-60
[16] = test system: UACC-257
[17] = test system: EKVX
[18] = test system: MDA-MB-435
[19] = test system: K562
[20] = test system: HCT-15

Compound	GI50 [1]	GI50 [2]	GI50 [3]	GI50 [4]	GI50 [5]	GI50 [6]	GI50 [7]	GI50 [8]	GI50 [9]	GI50 [10]	GI50 [11]	GI50 [12]	GI50 [13]	GI50 [14]	GI50 [15]	GI50 [16]	GI50 [17]	GI50 [18]	GI50 [19]	GI50 [20] [µM]
Clc1ccc2c(c1)N(CCCN1CCCC13CCCCC3)c1ccccc1S2	> 41.9 µM (inactive)	11.9 µM (inactive)	> 39.2 µM (inactive)	35.3 µM (inactive)	10.6 µM (inactive)	24.2 µM (inactive)	10.4 µM (inactive)	13.8 µM (inactive)	20.8 µM (inactive)	2.79 µM (inactive)	3.76 µM (inactive)	14.5 µM (inactive)	3.08 µM (inactive)	16.6 µM (inactive)	0.152 µM (active)	10.3 µM (inactive)	11.9 µM (inactive)	14.2 µM (inactive)	3.95 µM (inactive)	17.1
CCOC(=O)CSc1nc(-c2ccc(Cl)cc2)c(C#N)c(=O)[nH]1	> 100 µM (inactive)	85.1 µM (inactive)	> 100 µM (inactive)	82.4 µM (inactive)	58.5 µM (inactive)	> 100 µM (inactive)	42.3 µM (inactive)	> 100 µM (inactive)	> 100 µM (inactive)	> 100 µM (inactive)	> 100 µM (inactive)	> 100 µM (inactive)	76 µM (inactive)	> 100 µM (inactive)	22 µM (inactive)	> 100 µM (inactive)	> 100 µM (inactive)	> 100 µM (inactive)	36 µM (inactive)	> 100
COC(=O)c1cc2c(cc1CC1Cc3cc4c(cc3C1)CCC4)CCC2	52.6 µM (inactive)	37.5 µM (inactive)	40.5 µM (inactive)	> 100 µM (inactive)	25.7 µM (inactive)	90.6 µM (inactive)	27 µM (inactive)	68.7 µM (inactive)	> 100 µM (inactive)	21.8 µM (inactive)	17.2 µM (inactive)	> 100 µM (inactive)	22.6 µM (inactive)	84.7 µM (inactive)	15.3 µM (inactive)	25.8 µM (inactive)	52.6 µM (inactive)	42.6 µM (inactive)	25.8 µM (inactive)	59.2
O=C(O)c1ccccc1CC1Cc2ccccc2C1	> 100 µM (inactive)	> 100 µM (inactive)	> 100 µM (inactive)	> 100 µM (inactive)	> 100 µM (inactive)	> 100 µM (inactive)	> 100 µM (inactive)	> 100 µM (inactive)	> 100 µM (inactive)	> 100 µM (inactive)	> 100 µM (inactive)	> 100 µM (inactive)	> 100 µM (inactive)	> 100 µM (inactive)	> 100 µM (inactive)	> 100 µM (inactive)	> 100 µM (inactive)	> 100 µM (inactive)	> 100 µM (inactive)	> 100
O=C1C(=O)N(c2cccc(C(F)(F)F)c2)C(=O)C(=O)C1c1nc2ccccc2s1	> 100 µM (inactive)	> 100 µM (inactive)	> 100 µM (inactive)	> 81.8 µM (inactive)	> 100 µM (inactive)	> 100 µM (inactive)	> 100 µM (inactive)	> 64 µM (inactive)	> 100 µM (inactive)	> 80 µM (inactive)	43.3 µM (inactive)	> 90.8 µM (inactive)	99.5 µM (inactive)	> 100 µM (inactive)	31.8 µM (inactive)	> 92 µM (inactive)	> 100 µM (inactive)	> 100 µM (inactive)	51.2 µM (inactive)	39.6
C/N=c1/oc2ccccc2cc1C(N)=O	> 100 µM (inactive)	> 100 µM (inactive)	> 100 µM (inactive)	> 100 µM (inactive)	> 100 µM (inactive)	> 100 µM (inactive)	> 100 µM (inactive)	> 100 µM (inactive)	> 100 µM (inactive)	> 100 µM (inactive)	> 100 µM (inactive)	> 100 µM (inactive)	> 100 µM (inactive)	> 100 µM (inactive)	> 100 µM (inactive)	> 100 µM (inactive)	30.8 µM (inactive)	> 100 µM (inactive)	> 100 µM (inactive)	> 100
COc1ccccc1NC(=O)CC(=O)N1N=C(N2c3ccccc3Sc3ccccc32)CC1c1ccccc1 (stereo not given)	> 100 µM (inactive)	> 100 µM (inactive)	> 100 µM (inactive)	> 100 µM (inactive)	> 100 µM (inactive)	> 100 µM (inactive)	> 100 µM (inactive)	> 100 µM (inactive)	> 100 µM (inactive)	> 100 µM (inactive)	> 100 µM (inactive)	> 100 µM (inactive)	> 100 µM (inactive)	> 100 µM (inactive)	> 100 µM (inactive)	> 100 µM (inactive)	> 100 µM (inactive)	> 100 µM (inactive)	> 100 µM (inactive)	> 100
O=C1C(Cl)=C(N(C(=O)c2ccccc2)C(=O)c2ccccc2)C(=O)c2ccccc21	3.6 µM (inactive)	4.68 µM (inactive)	16.1 µM (inactive)	> 100 µM (inactive)	5.7 µM (inactive)	10.5 µM (inactive)	13.1 µM (inactive)	3.38 µM (inactive)	40.6 µM (inactive)	2.05 µM (inactive)	55 µM (inactive)	21.2 µM (inactive)	12.1 µM (inactive)	> 100 µM (inactive)	1.08 µM (active)	14.9 µM (inactive)	5.74 µM (inactive)	12.6 µM (inactive)	3.4 µM (inactive)	2.94
N#CC1=C(N)OC(c2ccc([N+](=O)[O-])cc2)C1(C#N)C#N (stereo not given)	9.48 µM (inactive)	18.4 µM (inactive)	5.94 µM (inactive)	18.3 µM (inactive)	6.62 µM (inactive)	0.785 µM (active)	7.94 µM (inactive)	> 33.7 µM (inactive)	26.2 µM (inactive)	7.78 µM (inactive)	33.7 µM (inactive)	13.2 µM (inactive)	9.46 µM (inactive)	17.9 µM (inactive)	3.46 µM (inactive)	13.1 µM (inactive)	14.2 µM (inactive)	17 µM (inactive)	37.8 µM (inactive)	10.5
CCOC(=O)C1C(=O)C=C(c2cc(C)ccc2O)CC1c1cccc(Br)c1 (stereo not given)	14.2 µM (inactive)	18.6 µM (inactive)	16.2 µM (inactive)	15.7 µM (inactive)	14.7 µM (inactive)	21.9 µM (inactive)	10.4 µM (inactive)	13.2 µM (inactive)	14.2 µM (inactive)	13.9 µM (inactive)	16 µM (inactive)	17.7 µM (inactive)	17.9 µM (inactive)	34.4 µM (inactive)	20.9 µM (inactive)	15.7 µM (inactive)	24 µM (inactive)	2.39 µM (inactive)	11.7 µM (inactive)	3.24
